Biological target: T1, human recombinant dopamine D4.2 receptor (Homo sapiens, UniProt P21917, DEL265-296)
T1 construct: expressed in transfected cells
T1 sequence (P21917 with tags, fused parts or gaps DEL265-296): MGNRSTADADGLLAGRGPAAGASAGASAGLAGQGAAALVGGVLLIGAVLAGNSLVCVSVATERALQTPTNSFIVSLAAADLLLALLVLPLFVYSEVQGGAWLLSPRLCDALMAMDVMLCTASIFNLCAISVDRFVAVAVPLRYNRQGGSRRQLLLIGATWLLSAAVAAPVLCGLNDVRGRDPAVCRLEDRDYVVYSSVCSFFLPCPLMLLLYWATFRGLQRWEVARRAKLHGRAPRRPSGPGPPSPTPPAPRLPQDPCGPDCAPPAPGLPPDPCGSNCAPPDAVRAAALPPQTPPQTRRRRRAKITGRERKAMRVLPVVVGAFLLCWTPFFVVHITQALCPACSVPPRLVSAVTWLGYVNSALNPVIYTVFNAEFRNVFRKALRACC
Assay: [3H]spiperone receptor binding assay, human dopamine D4.2, CHO K1 cell membranes

Ki [nM]	Compound
173	O=C1COc2ccc(CN3CCN(c4ccc(C(F)(F)F)cc4)CC3)cc2N1 [Example 31, 6-[4-(4-Trifluoromethyl-phenyl)-piperazin-1-ylmethyl]-4H-benzo[1,4]oxazin-3-one]
2.84	Cc1ccc(C2CCN(Cc3ccc4c(c3)NC(=O)CO4)CC2)cc1 [Example 16, 6-(4-p-Tolyl-piperidin-1-ylmethyl)-4H-benzo[1,4]oxazin-3-one]
